{
  "source": "patent US9809861B2",
  "about": "“Method of evaluating inhibitory effect on damp-dry malodor” (Kao Corporation, priority 2012, dated 2017)",
  "key": {"[1]": {"tested_on": "fadB gene", "assay": "Change in expression amount of fadB gene in the presence of test substance (real time PCR)", "assay_type": "cell-based, Moraxella sp. KMC4-1", "conditions": "Substance (1) 10 ppm, (2)(3)(5)(6) 100 ppm, (4) 500 ppm", "protocol": "(§1) The substances (1) to (7) described below each were added to 4 mL SCD liquid medium (manufactured by NIHON PHARMACEUTICAL CO., LTD). As a control, a medium system not added with any test substance was also prepared. To these medium, one platinum loop of precultured Moraxella sp. KMC4-1 was inoculated and cultured for 24 hours at 35 C while shaking (160 rpm).\n(§2) To the cell liquid cultured for 24 hours, 10 mg of 16-methyloctadecanoic acid was added as a sebaceous dirt component. After culturing again for 6 hours at 35° C., the cells were collected. As a control, a system not added with a sebaceous dirt component was also cultured and cells were collected therefrom.\n(§3) An RNA sample was prepared from the collected cells in the same manner as in the test example 1.\n(§4) Reaction solutions for real time PCR were prepared in the same manner as above, except that, instead of the primer set including the primer containing the oligonucleotide having the base sequence set forth in SEQ ID NO: 13 and the primer containing the oligonucleotide having the base sequence set forth in SEQ ID NO: 14, the primer set described in Tables 11 to 13 was used.\n(§5) The reaction solutions for real time PCR each were subjected to a gene amplification by using an automatic gene amplification thermal cycler DICE Real time system II (manufactured by Takara Bio Inc.), and then the expression amount of each of the fatty acid desaturase gene (the Δ9desaturase gene) and the β oxidation-relating enzyme genes (the fadB gene and the fadD gene) was measured. PCR reaction conditions were 40 cycles of (i) a thermal denaturation reaction at 95° C. for 20 seconds, and (ii) an annealing reaction and an elongation reaction at 60° C. for 30 seconds.\n(§6) By having the gene expression of 16S rRNA as an internal standard, and having the gene expression amount when adding no sebaceous dirt component and no test substance as a reference value, change in expression amount of each gene was calculated relative to the reference value. A sample, in which the expression amount of the gene was ½ times or less the reference value, was rated as “A”; a sample, in which the expression amount of the gene was more than ½ times and ⅔ times or less the reference value, was rated as “B”; and a sample, in which the expression amount of the gene was more than ⅔ times the reference value, was rated as “C”."}, "[2]": {"tested_on": "Moraxella sp. KMC4-1", "assay": "Growth-inhibitory test", "assay_type": "cell-based", "conditions": "SCD liquid medium, initial 10^4 CFU/mL, 24 hours, 35° C.; Substance (1) 10 ppm, (2)(3)(5)(6) 100 ppm, (4) 500 ppm", "protocol": "To 4 mL of SCD liquid medium (manufactured by NIHON PHARMACEUTICAL CO., LTD), the substances (1) to (7) each were added so as to be the final concentration described in Table 15. As a control, a medium system not added with any test substance was also prepared. To the medium, the precultured Moraxella sp. KMC4-1 was inoculated so as to be the initial concentration of 10^4 CFU/mL and cultured for 24 hours at 35° C. while shaking (160 rpm). After that, it was subjected to serial dilution using LP dilution solution (NIHON PHARMACEUTICAL CO., LTD). Then, by using SCD-LP agar medium (NIHON PHARMACEUTICAL CO., LTD), the number of bacteria remained alive was determined.\nAs for the growth-inhibitory and the bactericidal effect, the evaluation was made as follows: compared to the control, when there was the bacteria number decrease of log 3 or more, it was rated as “A”; when there was the bacteria number decrease of log 1 or more but less than log 3, it was rated as “B”; and when there was the bacteria number decrease of less than log 1, it was rated as “C”."}, "[3]": {"tested_on": "Δ9desaturase gene", "assay": "Change in expression amount of Δ9desaturase gene in the presence of test substance (real time PCR)", "assay_type": "cell-based, Moraxella sp. KMC4-1", "conditions": "Substance (1) 10 ppm, (2)(3)(5)(6) 100 ppm, (4) 500 ppm", "protocol": "as §1, §2, §3\nBy mixing 2 μL solution of the prepared template diluted ×20 with distilled sterile water, 12.5 μL of TaKaRa SYBR Premix EX Taq (trade name, manufactured by Takara Bio Inc.), 0.5 μL of the primer (des_F1, […]) containing the oligonucleotide having the base sequence set forth in SEQ ID NO: 13, 0.5 μL of the primer (des_R1, […]) containing the oligonucleotide having the base sequence set forth in SEQ ID NO: 14 and 9.5 μL of distilled sterile water, 25 μL reaction solution for real time PCR was prepared.\nas §4, §5, §6"}},
  "data": [
    {"smiles": "O=C[C@H](O)[C@@H](O)[C@H](O)[C@H](O)CO", "note": "[Substance (5)]", "values": [
      {"measurement": "Change in the expression amount of fadB gene", "setting": "[1]; primers SEQ ID NO: 25 / 26", "value": "C (the expression amount of the gene was more than ⅔ times the reference value)"},
      {"measurement": "Change in the expression amount of fadB gene", "setting": "[1]; primers SEQ ID NO: 27 / 28", "value": "C (the expression amount of the gene was more than ⅔ times the reference value)"},
      {"measurement": "Change in the expression amount of fadB gene", "setting": "[1]; primers SEQ ID NO: 29 / 30", "value": "C (the expression amount of the gene was more than ⅔ times the reference value)"},
      {"measurement": "Change in the expression amount of fadB gene", "setting": "[1]; primers SEQ ID NO: 31 / 32", "value": "C (the expression amount of the gene was more than ⅔ times the reference value)"},
      {"measurement": "Growth-inhibitory effect", "setting": "[2]", "value": "C (the bacteria number decrease of less than log 1)"},
      {"measurement": "Change in the expression amount of Δ9desaturase gene", "setting": "[3]; primers SEQ ID NO: 13 / 14, 16-methyloctadecanoic acid added, relative to reference without sebaceous dirt component and test substance", "value": "C (the expression amount of the gene was more than ⅔ times the reference value)"},
      {"measurement": "Change in the expression amount of Δ9desaturase gene", "setting": "[3]; primers SEQ ID NO: 15 / 16", "value": "C (the expression amount of the gene was more than ⅔ times the reference value)"},
      {"measurement": "Change in the expression amount of Δ9desaturase gene", "setting": "[3]; primers SEQ ID NO: 17 / 18", "value": "C (the expression amount of the gene was more than ⅔ times the reference value)"},
      {"measurement": "Change in the expression amount of Δ9desaturase gene", "setting": "[3]; primers SEQ ID NO: 19 / 20", "value": "C (the expression amount of the gene was more than ⅔ times the reference value)"},
      {"measurement": "Change in the expression amount of Δ9desaturase gene", "setting": "[3]; primers SEQ ID NO: 21 / 22", "value": "C (the expression amount of the gene was more than ⅔ times the reference value)"},
      {"measurement": "Change in the expression amount of Δ9desaturase gene", "setting": "[3]; primers SEQ ID NO: 23 / 24", "value": "C (the expression amount of the gene was more than ⅔ times the reference value)"}
    ]}
  ]
}
